Assay results: patent US10258039B2, “Substituted pyrazolylpyrazole derivative and use of same as herbicide” (KYOYU AGRI CO., LTD., priority 2015, dated 2019)

Experiments:
Assay type in all cases: in vivo
Galinsoga parviflora = experiment: Weed foliar treatment test (Test 4, 4.0 to 5.0 leaf stage); settings: 10g a.i./10a; foliar spray at 4.0 to 5.0 leaf stage of Digitaria ciliaris; 20 days, 25° C.
Description: (§1) 4. Weed Foliar Treatment Test
(§2) Field soil was filled into a 1/4500 are pot followed by seeding with Digitaria ciliaris and Galinsoga parviflora, covering with soil and cultivating in a glass greenhouse at an average atmospheric temperature of 25° C.
(§3) Wettable powders of Target Compound (I) shown in Table 1 prepared in compliance with the preparation examples were diluted with water to the prescribed amount of chemical and uniformly sprayed onto the weeds using 100 liters of sprayed water per 10 are when Digitaria ciliaris had grown to the 4.0 to 5.0 leaf stage (plant height: 10 cm to 15 cm).
(§4) After treating for 20 days in a glass greenhouse at an average atmospheric temperature of 25° C., the herbicidal efficacy thereof was investigated.
(§5) Evaluation of herbicidal efficacy was carried out in the same manner as the above-mentioned Test Example 1.

Digitaria ciliaris [1] = experiment: as above; settings: 10g a.i./10a; foliar spray at 4.0 to 5.0 leaf stage of Digitaria ciliaris (plant height 10 cm to 15 cm); 20 days, 25° C.
Description: as §1, §2, §3, §4, §5

Digitaria ciliaris [2] = experiment: Weed foliar treatment test (Test 3, 1.0 to 2.0 leaf stage); settings: foliar spray at 1.0 to 2.0 leaf stage of Digitaria ciliaris, 3 weeks, 25° C.
Description: (§6) 3. Weed Foliar Treatment Test
(§7) Soil was filled into a 1/6000 are pot followed by seeding with Digitaria ciliaris, Chenopodium album and Amaranthus retroflexus, covering with soil, and cultivating in a glass greenhouse at an average atmospheric temperature of 25° C.
(§8) Wettable powders of Target Compound (I) shown in Table 1 prepared in compliance with the preparation examples were diluted with water to the prescribed amount of chemical and uniformly sprayed onto the weeds using 150 liters of sprayed water per 10 are when Digitaria ciliaris had grown to the 1.0 to 2.0 leaf stage.
(§9) After treating for 3 weeks in a glass greenhouse at an average atmospheric temperature of 25° C., the herbicidal efficacy thereof was investigated.
as §5

Chenopodium album [3] = experiment: as above; settings: foliar spray at 1.0 to 2.0 leaf stage of Digitaria ciliaris, 3 weeks, 25° C.
Description: as §6, §7, §8, §9, §5

Amaranthus retroflexus [4] = experiment: as above; settings: foliar spray at 1.0 to 2.0 leaf stage of Digitaria ciliaris, 3 weeks, 25° C.
Description: as §6, §7, §8, §9, §5

Oryza sativa = experiment: Paddy herbicidal activity test, phytotoxicity to transplanted rice; settings: rice transplanted at 2.0 leaf stage, 30 days, 30° C.
Description: (§10) 1. Paddy Herbicidal Activity Test
(§11) Rice paddy soil was filled into a 1/10000 are pot followed by the addition of suitable amounts of water and chemical fertilizer, kneading, seeding with Echinochloa crus-galli, Monochoria vaginalis and Scirpus juncoides and maintaining in an irrigated state at a water depth of 3 cm.
(§12) Wettable powders of Target Compound (I) shown in. Table 1 prepared in compliance with the preparation examples were diluted with a suitable amount of water, rice plants in the 2.0 leaf stage were transplanted during 3.5 leaf stage of Echinochloa crus-galli, and treated by dropping in chemical in the prescribed amount per 10 are using a pipette.
(§13) After treating for 30 days in a glass greenhouse at an average atmospheric temperature of 30° C., the herbicidal efficacy thereof was investigated.
(§14) Evaluation of herbicidal efficacy was carried out by comparing growth inhibition rate (%) with an untreated group, while evaluation of phytotoxicity was carried out by comparing growth inhibition rate (%) with the state of a complete eradication group, and were evaluated at 11 levels indicated below.

Echinochloa crus-galli = experiment: Paddy herbicidal activity test; settings: irrigated paddy pot, treated at 3.5 leaf stage of Echinochloa crus-galli, 30 days, 30° C.
Description: as §10, §11, §12, §13, §14

Scirpus juncoides = experiment: Paddy herbicidal activity test; settings: irrigated paddy pot, 30 days, 30° C.
Description: as §10, §11, §12, §13, §14

Monochoria vaginalis = experiment: Paddy herbicidal activity test; settings: irrigated paddy pot, 30 days, 30° C.
Description: as §10, §11, §12, §13, §14

Digitaria ciliaris [5] = experiment: Farming soil treatment test; settings: soil surface spray prior to weed growth, 30 days, 30° C.
Description: (§15) 2. Farming Soil Treatment Test
(§16) Field soil was filled into a 1/6000 are pot followed by seeding with Digitaria ciliaris, Chenopodium album and Amaranthus retroflexus and covering with soil.
(§17) Wettable powders of compounds of formula (I) shown in Table 1 prepared in compliance with the preparation examples were diluted with water to the prescribed amount of chemical and uniformly sprayed onto each soil surface layer using 100 liters of sprayed water per 10 are prior to weed growth following seeding.
as §13, §5

Chenopodium album [6] = experiment: Farming soil treatment test; settings: soil surface spray prior to weed growth, 30 days, 30° C.
Description: as §15, §16, §17, §13, §5

Amaranthus retroflexus [7] = experiment: Farming soil treatment test; settings: soil surface spray prior to weed growth, 30 days, 30° C.
Description: as §15, §16, §17, §13, §5

SMILES	herbicidal efficacy, Galinsoga parviflora (Galinsoga parviflora)	herbicidal efficacy, Digitaria ciliaris (Digitaria ciliaris [1])	herbicidal efficacy, Digitaria ciliaris (Digitaria ciliaris [5]; 5g a.i./10a)	herbicidal efficacy, Digitaria ciliaris (Digitaria ciliaris [5]; 10g a.i./10a)	herbicidal efficacy, Chenopodium album (Chenopodium album [6]; 5g a.i./10a)	herbicidal efficacy, Chenopodium album (Chenopodium album [6]; 10g a.i./10a)	herbicidal efficacy, Amaranthus retroflexus (Amaranthus retroflexus [7]; 5g a.i./10a)	herbicidal efficacy, Amaranthus retroflexus (Amaranthus retroflexus [7]; 10g a.i./10a)	other results
O=C(Nc1c([N+](=O)[O-])cnn1-c1nn2c(c1Cl)CCCC2)C1CCCC1 [Compound 6]	10 (10: 100%)	9 (9: 90% to less than 100%)	9 (9: 90% to less than 100%)	9 (9: 90% to less than 100%)	9 (9: 90% to less than 100%)	9 (9: 90% to less than 100%)	10 (10: 100%)	10 (10: 100%)	herbicidal efficacy, Digitaria ciliaris (Digitaria ciliaris [2]; 5g a.i./10a): 10 (10: 100%); herbicidal efficacy, Digitaria ciliaris (Digitaria ciliaris [2]; 10g a.i./10a): 10 (10: 100%); herbicidal efficacy, Chenopodium album (Chenopodium album [3]; 5g a.i./10a): 10 (10: 100%); herbicidal efficacy, Chenopodium album (Chenopodium album [3]; 10g a.i./10a): 10 (10: 100%); herbicidal efficacy, Amaranthus retroflexus (Amaranthus retroflexus [4]; 5g a.i./10a): 10 (10: 100%); herbicidal efficacy, Amaranthus retroflexus (Amaranthus retroflexus [4]; 10g a.i./10a): 10 (10: 100%); phytotoxicity, Oryza sativa (Oryza sativa; 1g a.i./10a): 0 (0 (exponent): 0% to less than 10% (growth inhibition rate)); phytotoxicity, Oryza sativa (Oryza sativa; 5g a.i./10a): 1 (1: 10% to less than 20%); herbicidal efficacy, Echinochloa crus-galli (Echinochloa crus-galli; 1g a.i./10a): 10 (10: 100%); herbicidal efficacy, Echinochloa crus-galli (Echinochloa crus-galli; 5g a.i./10a): 10 (10: 100%); herbicidal efficacy, Scirpus juncoides (Scirpus juncoides; 1g a.i./10a): 9 (9: 90% to less than 100%); herbicidal efficacy, Scirpus juncoides (Scirpus juncoides; 5g a.i./10a): 9 (9: 90% to less than 100%); herbicidal efficacy, Monochoria vaginalis (Monochoria vaginalis; 1g a.i./10a): 10 (10: 100%); herbicidal efficacy, Monochoria vaginalis (Monochoria vaginalis; 5g a.i./10a): 10 (10: 100%)
CC1(C(=O)Nc2c(C#N)cnn2-c2nn3c(c2Cl)CCCC3)CC1 [Compound 3]	10 (10: 100%)	10 (10: 100%)	–	–	–	–	–	–	–
N#Cc1cnn(-c2nn3c(c2Cl)CCCC3)c1NC(=O)CCC1CCCC1 [Compound 30]	10 (10: 100%)	10 (10: 100%)	–	–	–	–	–	–	–
CN(C(=O)CC1CC1)c1c(C#N)cnn1-c1nn2c(c1Cl)CCCC2 [Compound 1, Methyl N-(1-(3-chloro-4,5,6,7-tetrahydropyrazolo[1,5-a]pyridin-2-yl)4-cyanopyrazol-5-yl)-2-cyclopropyl Acetoamide]	–	–	9 (9: 90% to less than 100%)	10 (10: 100%)	10 (10: 100%)	10 (10: 100%)	10 (10: 100%)	10 (10: 100%)	–
N#Cc1cnn(-c2nn3c(c2Cl)CCCC3)c1NC(=O)C1CCC1 [Compound 4]	10 (10: 100%)	10 (10: 100%)	–	–	–	–	–	–	–
N#Cc1cnn(-c2nn3c(c2Cl)CCCC3)c1NC(=O)C1CCCC1 [Compound 5]	10 (10: 100%)	10 (10: 100%)	–	–	–	–	–	–	–
N#Cc1cnn(-c2nn3c(c2Cl)CCCC3)c1NC(=O)C1CCCCC1 [Compound 7]	10 (10: 100%)	10 (10: 100%)	–	–	–	–	–	–	–
O=C(Nc1c([N+](=O)[O-])cnn1-c1nn2c(c1Cl)CCCC2)C1CC1 [Compound 2]	10 (10: 100%)	10 (10: 100%)	9 (9: 90% to less than 100%)	9 (9: 90% to less than 100%)	9 (9: 90% to less than 100%)	9 (9: 90% to less than 100%)	10 (10: 100%)	10 (10: 100%)	herbicidal efficacy, Digitaria ciliaris (Digitaria ciliaris [2]; 5g a.i./10a): 10 (10: 100%); herbicidal efficacy, Digitaria ciliaris (Digitaria ciliaris [2]; 10g a.i./10a): 10 (10: 100%); herbicidal efficacy, Chenopodium album (Chenopodium album [3]; 5g a.i./10a): 10 (10: 100%); herbicidal efficacy, Chenopodium album (Chenopodium album [3]; 10g a.i./10a): 10 (10: 100%); herbicidal efficacy, Amaranthus retroflexus (Amaranthus retroflexus [4]; 5g a.i./10a): 10 (10: 100%); herbicidal efficacy, Amaranthus retroflexus (Amaranthus retroflexus [4]; 10g a.i./10a): 10 (10: 100%); phytotoxicity, Oryza sativa (Oryza sativa; 1g a.i./10a): 1 (1: 10% to less than 20%); phytotoxicity, Oryza sativa (Oryza sativa; 5g a.i./10a): 1 (1: 10% to less than 20%); herbicidal efficacy, Echinochloa crus-galli (Echinochloa crus-galli; 1g a.i./10a): 10 (10: 100%); herbicidal efficacy, Echinochloa crus-galli (Echinochloa crus-galli; 5g a.i./10a): 10 (10: 100%); herbicidal efficacy, Scirpus juncoides (Scirpus juncoides; 1g a.i./10a): 9 (9: 90% to less than 100%); herbicidal efficacy, Scirpus juncoides (Scirpus juncoides; 5g a.i./10a): 9 (9: 90% to less than 100%); herbicidal efficacy, Monochoria vaginalis (Monochoria vaginalis; 1g a.i./10a): 10 (10: 100%); herbicidal efficacy, Monochoria vaginalis (Monochoria vaginalis; 5g a.i./10a): 10 (10: 100%)
O=C(CC1CC1)Nc1c([N+](=O)[O-])cnn1-c1nn2c(c1Cl)CCCC2 [Compound 8]	10 (10: 100%)	9 (9: 90% to less than 100%)	9 (9: 90% to less than 100%)	10 (10: 100%)	10 (10: 100%)	10 (10: 100%)	10 (10: 100%)	10 (10: 100%)	herbicidal efficacy, Digitaria ciliaris (Digitaria ciliaris [2]; 5g a.i./10a): 9 (9: 90% to less than 100%); herbicidal efficacy, Digitaria ciliaris (Digitaria ciliaris [2]; 10g a.i./10a): 10 (10: 100%); herbicidal efficacy, Chenopodium album (Chenopodium album [3]; 5g a.i./10a): 10 (10: 100%); herbicidal efficacy, Chenopodium album (Chenopodium album [3]; 10g a.i./10a): 10 (10: 100%); herbicidal efficacy, Amaranthus retroflexus (Amaranthus retroflexus [4]; 5g a.i./10a): 10 (10: 100%); herbicidal efficacy, Amaranthus retroflexus (Amaranthus retroflexus [4]; 10g a.i./10a): 10 (10: 100%); phytotoxicity, Oryza sativa (Oryza sativa; 1g a.i./10a): 0 (0 (exponent): 0% to less than 10% (growth inhibition rate)); phytotoxicity, Oryza sativa (Oryza sativa; 5g a.i./10a): 0 (0 (exponent): 0% to less than 10% (growth inhibition rate)); herbicidal efficacy, Echinochloa crus-galli (Echinochloa crus-galli; 1g a.i./10a): 9 (9: 90% to less than 100%); herbicidal efficacy, Echinochloa crus-galli (Echinochloa crus-galli; 5g a.i./10a): 10 (10: 100%); herbicidal efficacy, Scirpus juncoides (Scirpus juncoides; 1g a.i./10a): 9 (9: 90% to less than 100%); herbicidal efficacy, Scirpus juncoides (Scirpus juncoides; 5g a.i./10a): 10 (10: 100%); herbicidal efficacy, Monochoria vaginalis (Monochoria vaginalis; 1g a.i./10a): 10 (10: 100%); herbicidal efficacy, Monochoria vaginalis (Monochoria vaginalis; 5g a.i./10a): 10 (10: 100%)
N#Cc1cnn(-c2nn3c(c2Cl)CCCC3)c1NC(=O)CCC1CC=CCC1 (centres unmarked) [Compound 31]	10 (10: 100%)	10 (10: 100%)	–	–	–	–	–	–	–
N#Cc1cnn(-c2nn3c(c2Cl)CCCC3)c1NC(=O)CC1CCCC1 [Compound 29]	10 (10: 100%)	10 (10: 100%)	–	–	–	–	–	–	–
